# System: MDA-MB-231
# Test: Cytotoxicity against Homo sapiens (human) MDA-MB-231 cells assessed as inhibition of cell proliferation at 2 mM after 72 hr by MTS assay relative to control
# Type: functional
# Details: MDA-MB-231, 72 h
row,Structure (SMILES),inhibition at 2000 µM
1,CS(=O)(=O)N1CCN(C(c2ccccc2)c2ccccc2)CC1,3.79%
2,Cc1ccc(S(=O)(=O)N2CCN(C(c3ccccc3)c3ccccc3)CC2)cc1,10%
3,O=S(=O)(c1ccc(Cl)cc1)N1CCN(C(c2ccccc2)c2ccccc2)CC1,1%
4,CC(C)(C)c1ccc(S(=O)(=O)N2CCN(C(c3ccccc3)c3ccccc3)CC2)cc1,28.6%
5,Cc1noc(C)c1S(=O)(=O)N1CCN(C(c2ccccc2)c2ccccc2)CC1,20.6%

# — ChEMBL document CHEMBL3046307, “Synthesis and evaluation of 1-benzhydryl-sulfonyl-piperazine derivatives as inhibitors of MDA-MB-231 human breast cancer cell proliferation” (2007)
